# Values joined by “and” are separate entries in the source; they are usually repeats but may differ in a detail not shown here. Identical values can stand only once. “Also recorded” adds a separate entry of the source. Positions of bridges follow the written chain, without caps; N, C: chain ends. Residues, ends and D or L forms follow the SMILES beside them.
# Assays:
# [1] = target: T1, type 1 ryanodine receptor (RyR1) (Homo sapiens, UniProt P21817); format: biochemical; set-up: sMCa-modified channels blocked by ruthenium red: dose or concentration left out as unconfirmed; conditions: for reversibility of the induced subconductance states on perfusion of the cis chamber: channel modified by sMCa and ryanodine, trace 5
# T1 construct: from tissue; host or cells: sarcoplasmic reticulum (SR) vesicles
# T1 sequence (P21817 whole entry, species assumed, the tested form may be a part): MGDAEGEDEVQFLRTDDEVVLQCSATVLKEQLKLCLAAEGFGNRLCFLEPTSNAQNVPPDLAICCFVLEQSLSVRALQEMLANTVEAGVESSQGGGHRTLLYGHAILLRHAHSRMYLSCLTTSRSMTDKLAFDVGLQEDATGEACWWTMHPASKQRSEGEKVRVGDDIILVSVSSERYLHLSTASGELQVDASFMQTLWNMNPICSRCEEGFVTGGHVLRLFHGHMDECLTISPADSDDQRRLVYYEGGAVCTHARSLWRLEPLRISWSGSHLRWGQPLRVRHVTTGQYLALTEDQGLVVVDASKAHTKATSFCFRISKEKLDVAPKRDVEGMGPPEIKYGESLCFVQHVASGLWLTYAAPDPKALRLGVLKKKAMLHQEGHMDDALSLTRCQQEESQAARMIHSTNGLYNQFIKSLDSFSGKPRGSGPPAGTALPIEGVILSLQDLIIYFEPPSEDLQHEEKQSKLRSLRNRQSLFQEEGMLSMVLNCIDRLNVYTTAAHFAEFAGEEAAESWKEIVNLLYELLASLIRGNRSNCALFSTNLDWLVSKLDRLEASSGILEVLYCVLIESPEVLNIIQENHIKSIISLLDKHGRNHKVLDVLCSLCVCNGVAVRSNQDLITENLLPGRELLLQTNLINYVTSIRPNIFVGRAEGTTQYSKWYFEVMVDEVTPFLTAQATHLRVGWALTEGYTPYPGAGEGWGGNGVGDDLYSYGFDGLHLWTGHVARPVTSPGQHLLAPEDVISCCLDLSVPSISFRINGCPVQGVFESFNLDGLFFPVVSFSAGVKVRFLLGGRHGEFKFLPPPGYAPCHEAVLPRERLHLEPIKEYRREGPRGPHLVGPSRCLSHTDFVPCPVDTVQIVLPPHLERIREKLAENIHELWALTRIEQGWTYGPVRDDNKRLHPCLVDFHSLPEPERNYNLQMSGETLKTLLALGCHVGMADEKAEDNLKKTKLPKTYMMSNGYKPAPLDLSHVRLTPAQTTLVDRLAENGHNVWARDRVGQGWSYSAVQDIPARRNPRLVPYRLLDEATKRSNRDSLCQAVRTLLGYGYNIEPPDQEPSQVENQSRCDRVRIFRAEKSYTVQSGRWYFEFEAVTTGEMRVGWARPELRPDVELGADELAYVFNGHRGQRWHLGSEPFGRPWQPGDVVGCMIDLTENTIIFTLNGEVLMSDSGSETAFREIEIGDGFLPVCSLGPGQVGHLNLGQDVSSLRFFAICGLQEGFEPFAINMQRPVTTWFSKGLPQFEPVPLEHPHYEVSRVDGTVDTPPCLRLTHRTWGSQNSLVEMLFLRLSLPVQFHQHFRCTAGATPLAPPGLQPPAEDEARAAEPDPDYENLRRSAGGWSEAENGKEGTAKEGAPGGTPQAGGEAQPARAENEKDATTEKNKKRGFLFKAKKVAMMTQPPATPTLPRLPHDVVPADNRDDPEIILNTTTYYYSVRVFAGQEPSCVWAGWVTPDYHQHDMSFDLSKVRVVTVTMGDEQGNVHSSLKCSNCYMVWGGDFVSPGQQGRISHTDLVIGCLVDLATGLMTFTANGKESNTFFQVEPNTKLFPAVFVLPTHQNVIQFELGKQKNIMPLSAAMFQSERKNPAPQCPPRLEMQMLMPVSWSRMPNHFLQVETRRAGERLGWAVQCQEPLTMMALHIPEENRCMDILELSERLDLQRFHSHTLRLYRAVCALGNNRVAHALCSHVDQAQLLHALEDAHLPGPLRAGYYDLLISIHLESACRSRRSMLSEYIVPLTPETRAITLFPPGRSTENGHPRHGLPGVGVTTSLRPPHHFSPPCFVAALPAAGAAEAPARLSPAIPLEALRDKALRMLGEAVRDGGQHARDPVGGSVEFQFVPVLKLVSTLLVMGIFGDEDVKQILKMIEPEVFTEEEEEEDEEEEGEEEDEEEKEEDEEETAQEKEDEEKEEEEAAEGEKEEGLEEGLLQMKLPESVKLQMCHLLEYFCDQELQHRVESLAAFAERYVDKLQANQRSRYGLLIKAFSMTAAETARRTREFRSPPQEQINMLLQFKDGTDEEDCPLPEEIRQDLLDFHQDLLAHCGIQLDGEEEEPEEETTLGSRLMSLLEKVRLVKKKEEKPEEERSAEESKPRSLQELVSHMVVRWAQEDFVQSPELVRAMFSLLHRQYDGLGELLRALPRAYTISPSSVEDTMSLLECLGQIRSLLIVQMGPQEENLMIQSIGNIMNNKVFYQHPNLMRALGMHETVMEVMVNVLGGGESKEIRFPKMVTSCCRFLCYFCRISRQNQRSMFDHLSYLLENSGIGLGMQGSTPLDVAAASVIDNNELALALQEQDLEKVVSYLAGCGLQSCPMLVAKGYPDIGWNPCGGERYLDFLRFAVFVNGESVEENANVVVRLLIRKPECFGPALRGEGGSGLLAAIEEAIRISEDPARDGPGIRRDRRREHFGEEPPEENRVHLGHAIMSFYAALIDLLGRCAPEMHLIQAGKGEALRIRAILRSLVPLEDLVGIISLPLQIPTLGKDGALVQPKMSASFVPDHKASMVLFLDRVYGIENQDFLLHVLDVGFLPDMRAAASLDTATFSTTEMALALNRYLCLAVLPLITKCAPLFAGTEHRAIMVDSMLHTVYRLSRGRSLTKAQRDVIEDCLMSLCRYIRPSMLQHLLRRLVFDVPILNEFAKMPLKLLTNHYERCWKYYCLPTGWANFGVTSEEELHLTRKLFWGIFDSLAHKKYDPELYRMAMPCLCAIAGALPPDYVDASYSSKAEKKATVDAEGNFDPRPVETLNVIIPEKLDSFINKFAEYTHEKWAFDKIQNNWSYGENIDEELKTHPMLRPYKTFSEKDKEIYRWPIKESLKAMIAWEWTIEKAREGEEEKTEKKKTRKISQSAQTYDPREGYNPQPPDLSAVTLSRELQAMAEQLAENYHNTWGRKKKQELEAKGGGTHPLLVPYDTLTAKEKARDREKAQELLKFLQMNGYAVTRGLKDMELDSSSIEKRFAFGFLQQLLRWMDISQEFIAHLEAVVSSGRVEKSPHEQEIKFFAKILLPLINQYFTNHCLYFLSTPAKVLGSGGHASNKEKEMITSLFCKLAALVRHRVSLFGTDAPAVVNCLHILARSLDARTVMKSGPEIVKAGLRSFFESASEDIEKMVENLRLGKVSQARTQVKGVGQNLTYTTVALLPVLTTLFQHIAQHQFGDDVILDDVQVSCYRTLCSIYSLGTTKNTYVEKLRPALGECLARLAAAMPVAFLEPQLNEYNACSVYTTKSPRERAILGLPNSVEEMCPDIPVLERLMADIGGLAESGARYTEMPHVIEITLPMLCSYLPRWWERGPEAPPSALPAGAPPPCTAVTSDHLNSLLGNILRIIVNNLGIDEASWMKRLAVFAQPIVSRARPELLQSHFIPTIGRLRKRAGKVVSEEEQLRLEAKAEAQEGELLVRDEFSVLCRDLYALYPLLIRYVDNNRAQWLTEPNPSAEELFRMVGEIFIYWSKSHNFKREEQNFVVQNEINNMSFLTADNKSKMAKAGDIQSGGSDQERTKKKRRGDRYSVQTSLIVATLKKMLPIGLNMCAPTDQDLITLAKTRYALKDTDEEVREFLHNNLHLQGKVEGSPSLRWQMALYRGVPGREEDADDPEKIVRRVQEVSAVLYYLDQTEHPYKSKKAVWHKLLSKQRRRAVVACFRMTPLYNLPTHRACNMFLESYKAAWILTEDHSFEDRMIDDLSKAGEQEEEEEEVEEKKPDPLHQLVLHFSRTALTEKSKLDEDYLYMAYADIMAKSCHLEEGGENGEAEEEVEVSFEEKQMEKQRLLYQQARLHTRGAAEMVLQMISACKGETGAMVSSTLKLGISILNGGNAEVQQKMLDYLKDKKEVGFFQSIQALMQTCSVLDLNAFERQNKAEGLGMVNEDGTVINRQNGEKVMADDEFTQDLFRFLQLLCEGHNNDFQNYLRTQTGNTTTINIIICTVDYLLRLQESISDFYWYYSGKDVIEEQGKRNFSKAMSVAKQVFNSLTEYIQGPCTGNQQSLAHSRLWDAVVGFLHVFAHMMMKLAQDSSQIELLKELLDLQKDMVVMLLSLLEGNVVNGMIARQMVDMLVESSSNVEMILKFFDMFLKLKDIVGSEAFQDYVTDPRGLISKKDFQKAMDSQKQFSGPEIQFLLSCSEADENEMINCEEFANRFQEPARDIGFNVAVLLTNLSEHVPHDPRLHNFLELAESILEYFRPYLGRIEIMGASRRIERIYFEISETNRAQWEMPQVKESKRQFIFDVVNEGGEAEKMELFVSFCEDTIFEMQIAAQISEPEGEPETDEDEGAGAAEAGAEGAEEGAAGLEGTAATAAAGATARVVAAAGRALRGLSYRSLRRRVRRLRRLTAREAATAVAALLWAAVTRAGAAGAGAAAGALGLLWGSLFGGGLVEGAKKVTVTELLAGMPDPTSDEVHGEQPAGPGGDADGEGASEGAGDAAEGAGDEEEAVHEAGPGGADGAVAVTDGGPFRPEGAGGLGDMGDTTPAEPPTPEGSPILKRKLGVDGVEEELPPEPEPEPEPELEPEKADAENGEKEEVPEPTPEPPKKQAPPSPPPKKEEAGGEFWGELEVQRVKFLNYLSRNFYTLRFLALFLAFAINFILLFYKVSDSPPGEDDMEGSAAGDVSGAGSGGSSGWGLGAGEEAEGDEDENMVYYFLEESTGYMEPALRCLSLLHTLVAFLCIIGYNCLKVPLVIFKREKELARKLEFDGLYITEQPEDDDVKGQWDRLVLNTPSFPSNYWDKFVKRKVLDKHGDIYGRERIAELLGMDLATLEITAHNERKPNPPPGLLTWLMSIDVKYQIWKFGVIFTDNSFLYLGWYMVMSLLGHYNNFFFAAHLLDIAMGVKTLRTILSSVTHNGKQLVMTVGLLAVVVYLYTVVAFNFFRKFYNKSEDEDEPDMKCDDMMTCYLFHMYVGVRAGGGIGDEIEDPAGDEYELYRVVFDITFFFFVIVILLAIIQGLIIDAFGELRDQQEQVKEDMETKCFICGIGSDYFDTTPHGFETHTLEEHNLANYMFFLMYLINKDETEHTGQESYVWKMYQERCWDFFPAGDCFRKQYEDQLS
# Experimental: Single-channel recording: Cs^+ current through single RyR1 channels incorporated into planar lipid bilayers (BLM) was measured in an asymmetric CsCl (10:1 cis:trans) solution. The BLM was formed from a mixture of phosphatidylethanolamine and phosphatidylcholine (5:2, w/w) at 30-50 mg/ml in decane, across a […] aperture in a 1.0 ml polystyrene cup. SR vesicles were added to the cis side of chamber at a final concentration of 0.1-10 mg/ml. The cis solution contained 500 mM CsCl, ˜7 mM CaCl2, 20 mM HEPES, pH 7.4, and the trans solution contained 50 mM CsCl, 7 mM free Ca^2+, 20 mM HEPES, pH 7.4. The monovalent cation Cs^+ was used as permeant ion instead of divalent cations (such as Ca^2+) owing to its better permeability through RyR1. After a single fusion event, sarcoplasmic reticulum (SR) vesicles in cis chamber were quickly removed by perfusion with 9× volume of is solution. Single-channel current was measured under voltage clamp using a Dagan 3900 amplifier (Dagan Instruments, Minneapolis, Minn.). Holding potentials were with respect to the trans (ground) chamber, and positive current was defined as current flowing from cis to trans. Current signals were captured at 10 kHz and filtered at 1 kHz using a four pole Bessel filter. Data was digitized with a Digidata 1200 interface (Axon Instruments, Burlingame, Calif.) and stored on computer for subsequent analysis. Unless otherwise stated, test chemicals were sequentially added to the cis solution after an initial period of recording control channel behaviour. Single channel activity was analyzed with pCLAMP 7.0 (Axon Instruments). Current levels were analyzed by mean-variance analysis and peaks in the all-points amplitude histogram were fitted with Gaussian functions. The all-points amplitude histograms were constructed from selected segments-of data 20-150 sec in length to quantify the incidence of full and subconductance states.
# To test this hypothesis, we performed electrophysiological experiments on single RyR1 channels incorporated into planar lipid bilayers.
# [2] = target: T1, type 1 ryanodine receptor (RyR1); conditions: comparison with sMCa; cited from earlier work
# mice = experiment: Lethality after intracerebroventricular injection in mice
# [3] = sMCa and ryanodine (1 μM) both present
compound,measurement,setting,value
ryanodine [reference compound],reversibility of the induced subconductance states on perfusion of the cis chamber,[1],ryanodine-mediated half-states persisted
same,sMCa-modified channels subsequently modified by ryanodine,[1]; ryanodine 1 μM,Four out of five channels
"Imperatoxin A (GDCLPHLKRCKADNDCCGKKCKRRGTNAEKRCR; UniProt P59868 1-33, looked up) [IpTx A]",conductance state of RyR1 favoured,[2],⅓
"CC[C@H](C)[C@@H]1NC(=O)[C@H](CC(N)=O)NC(=O)[C@H]([C@@H](C)O)NC(=O)CNC(=O)[C@H](CCCNC(=N)N)NC(=O)[C@H](CCCNC(=N)N)NC(=O)[C@H](CCCCN)NC(=O)[C@@H]2CSSC[C@@H]3NC(=O)[C@H](CC(C)C)NC(=O)[C@H](CCCCN)NC(=O)[C@H](CC(C)C)NC(=O)[C@H](Cc4c[nH]cn4)NC(=O)[C@@H]4CCCN4C(=O)[C@H](CC(C)C)NC(=O)[C@@H](NC(=O)[C@H](CC(=O)O)NC(=O)CN)CSSC[C@H](NC(=O)[C@H](CSSC[C@@H](C(=O)N[C@@H](CCCNC(=N)N)C(=O)O)NC(=O)[C@H](CCCNC(=N)N)NC(=O)[C@H](CCCCN)NC(=O)[C@H](CCC(=O)O)NC1=O)NC(=O)[C@H](CC(=O)O)NC(=O)[C@H](CCCCN)NC(=O)[C@H](CC(N)=O)NC(=O)[C@H](CCC(=O)O)NC(=O)[C@H](CCCCN)NC3=O)C(=O)N[C@@H](CO)C(=O)N[C@@H](CCCCN)C(=O)N[C@@H](CCCCN)C(=O)N2 [sMCa, maurocalcine] (H-GDCLPHLKLCKENKDCCSKKCKRRGTNIEKRCR-OH; disulfide 3-17, 10-21, 16-32)",reversibility of the induced subconductance states on perfusion of the cis chamber,[1],reversed the sMCa-induced quarter states
same,"effect on RyR1 channel gating, toxin applied on the cis (cytoplasmic) side","[1]; nanomolar concentration (5 nM to 1 μM), cis chamber",dramatically modified the channel gating behavior; also recorded: potently and reversibly modifies channel gating behaviour; also recorded: potently activates RyR1 channels
same,"minor subconductance induced, fraction of the full conductance level","[1]; sMCa alone, cis, to a smaller extent",one-quarter
same,"predominant subconductance induced, fraction of the characteristic full conductance","[1]; sMCa alone, cis, traces 1-3",one-half
same,"half subconductance, % of the characteristic control conductance level",[1]; [3],~50.5% and 51%
same,"quarter subconductance, % of the characteristic control conductance level",[1]; [3],~29.3% and 29%
same,"effect on RyR1, toxin applied on the trans (luminal) side",[1]; trans side,No effect
same,LD50,mice,20 μg per mouse
"N.N.N.N.N.N.N.N.N.N.N.N.N.N.[Cl-].[Cl-].[Cl-].[Cl-].[Cl-].[Cl-].[O-2].[O-2].[Ru+3].[Ru+3].[Ru+4] [ruthenium red, reference compound]",block of the ryanodine/sMCa modified channel,[1],completely blocked
same,sMCa-modified channels blocked by ruthenium red,[1]; ruthenium red,Five out of six channels

# — US7319089B2, “Maurocalcine, analogues thereof and their therapeutical uses” (priority 2000, dated 2008)
